This is an account of results in patent US5932483A, “Synthetic peptide and its uses” (Northwestern University, priority 1996, dated 1999).

“And” between values parts separate entries of the source, which are not always exact repeats. Identical values can stand only once. No end group written: not given here.

For experiment [1], the target named is binding of rabbit Ig-HRP to solid phase C1q. As to the kind of experiment: Inhibition of binding of Ig-HRP to solid phase C1q. The conditions noted are these: Ig-HRP 1:100 in C1q buffer, 25° C.; read-out: 50% inhibition concentration, Ig-HRP binding to solid phase C1q. Here is the method:
C1q (gift of Dr. Lawrence Potempa, Immtech International Inc., Evanston, Ill.) diluted to 10 μg/ml in coating buffer was placed in the wells of a microtiter plate (100 μl/well) and incubated for 2 hours at 25° C. The uncoated surfaces of the wells were blocked by adding 340 μl PBSC and incubating the plate for 1 hour at 25° C., followed by washing 3 times with PBSC. Dilutions of Ig-HRP in C1q buffer (50 mM Tris, pH 7.2, 27 mM NaCl, 1 mM CaCl2, 0.01% (wt/v) Thimerosal) were incubated in the wells (100 μl/well) for 1 hour at 25° C. followed by washing 3 times with C1q buffer. OPD substrate buffer was then added (100 μl/well), and the colored product was measured at 414 nm in a Titertek Multiskan plate reader.
C1q was coated onto the surface of the wells of a microtiter plate as described in Part C. […] OPD substrate buffer (100 μl/well) was then added and the colored product measured at 414 nm in a Titertek Mutiskan plate reader.

In experiment [2] the test system is binding of rabbit Ig-HRP by solid phase Protein A. As to the kind of experiment: Inhibition of binding of Ig-HRP to solid phase Protein A. Here is the method: Protein A (recombinant Protein A from Repligen, Cambridge, Mass.) diluted to 1 μg/ml in coating buffer (0.1M NaHCO3, pH 9.0) was incubated in the wells of a microtiter plate (100 μl per well) for 2 hours at 37° C. Uncoated surfaces of the wells were blocked by adding 340 μl PBSC (9 mM Na2 HPO4, 1 mM NaH2 PO4, pH 7.2, 154 mM NaCl, 1 mg/ml casein or ovalbumin, and 0.01% thimerosal), incubating the plate 1 hour at 37° C., and then washing the wells 3 times with PBSCT (PBSC plus 0.1% Tween 20 (polyoxyethylene sorbitan monolaurate)). Dilutions of rabbit immunoglobulin labeled with horseradish peroxidase (Ig-HRP) (Zymed Laboratories, Inc., South San Francisco, Calif.) in PBS (9 mM Na2 HPO4, 1 mM NaH2 PO4, pH 7.2, 154 mM NaCl) were incubated in the wells (100 μl per well) for 2 hours at 37° C. followed by washing 3 times with PBS. OPD substrate buffer (0.8 mg/ml o-phenylenediamine, 0.1M Na2 HPO4, 0.05M sodium citrate, pH 5.5, plus 0.15% (v/v) H2 O2) was then added to the wells (100 μl/well), and the resultant colored product was measured with a Titertek Multiskan plate reader using a 414 nm filter.
OPD substrate buffer was then added (100 μl/well), and the resulting colored product was measured at 414 nm in a Titertek Multiskan plate reader.
8. […] Then the inhibition assay using solid phase Protein A was performed as described above.

Experiment [3] deals with guinea pig hearts transplanted into C6 deficient PVG rats. The experiment is described as follows: Heterotopic heart transplantation. The format is in vivo, rat. The conditions noted are these: pump 2ML4 (15.6 mg CBP2) plus i.v. 15.6 mg on day 2; 2 rats, individual values. Here is the method: Four to six week old guinea pigs (GP, Harlan, Indianapolis, Ind.) hearts were transplanted into C6 deficient PVG rats (B&K, Kent, Wash.) by a modification of the technique described by Ono and Lindsay (Journal of Thoracic Cardiovascular Surgery, 57, 225, 1969). Seven of the rats receiving GP hearts were not treated, 8 additional rats receiving GP hearts were treated with a single pre-transplant intravenous injection of a 3 ml cocktail of CBP3 [SEQ ID NO:4] (0.67 mg/ml) and 1.03 mg/ml of AEK [SEQ ID NO:5]. CBP3, 15.4 mg, was dissolved in 1.1 ml of 60% DMF in H2 O and AEK, 10 mg, was dissolved on 0.5 ml H2 O. Two hundred μl of CBP3 and 100 μl of AEK were added to 2.7 ml of 1:5 diluted (in PBS) heat-inactivated PVG C6 deficient rat serum. The GP transplanted hearts were monitored several times daily, and the times noted when the hearts stopped beating.
Two additional PVG C6 deficient rats were transplanted with GP hearts.
In a separate experiment, two C6 deficient PVG rats were transplanted with GP hearts.

Experiment [4] deals with human C1q binding to PAECs. The experiment is described as follows: Immunohistochemical staining of PAECs for binding of human C1q. Type of experiment: cell-based. Conditions: CBP2 1.2 mM. On the procedure:
PAECs (1×10^4) in 1 ml of CCM were added to each well of a 4-chamber culture slide (Labtek, Nunc, Naperville, Ill.), and the cells were grown to confluence (incubation for 3 days at 37° C. in 5% CO2 -95% air). The medium was removed, and the slide was washed with PBS (10 mM phosphate buffered saline, pH 7.4, containing 120 mM NaCl and 2.7 mM KCl, Sigma Chemical Co.) in a swirling motion for 5 sec. This was repeated with distilled water and 100% ethanol. The slide was tapped dry and immersed in pre-chilled (-20° C.) acetone for 20 min and then air dried.
HI-HS was added to the wells, and the slide was incubated for 15 min at 37° C. to allow human IgG and IgM antibodies to bind to PAEC epitopes. The HI-HS was removed, and the wells were washed 3 times with PBS. C1q or C1q plus peptide in PBS containing 1% bovine serum albumin (BSA, Sigma Chemical Co.) (PBSA) was then added, and the slide was incubated for 15 min at room temperature. The solutions were removed, and the wells were washed 3 times with PBS. Blocking serum was added [10% donkey serum (The Binding Site, Birmingham, England) in PBS], and the slide was incubated for 20 minutes at room temperature. […] Staining of the cells was analyzed on a Zeiss Axioskop (Carl Zeiss, Oberkochen, Germany) with a wide band FITC filter.

The next experiment addresses T1, HRP enzyme (Armoracia rusticana, UniProt P00433).
T1 construct: purchased Zymed Laboratories, Inc
As to the kind of experiment: Control: effect of CBP2 on the HRP enzyme. The format is biochemical, horseradish. Conditions: 50 μM CBP2, 3 hours 37° C. Here is the method: 1. […] Aliquots of 100 μl were placed in the wells of a microtiter plate and an equal volume of OPD substrate buffer was added, and the colored product was measured at 414 nm.

T1 sequence (P00433 31-338 limits assumed): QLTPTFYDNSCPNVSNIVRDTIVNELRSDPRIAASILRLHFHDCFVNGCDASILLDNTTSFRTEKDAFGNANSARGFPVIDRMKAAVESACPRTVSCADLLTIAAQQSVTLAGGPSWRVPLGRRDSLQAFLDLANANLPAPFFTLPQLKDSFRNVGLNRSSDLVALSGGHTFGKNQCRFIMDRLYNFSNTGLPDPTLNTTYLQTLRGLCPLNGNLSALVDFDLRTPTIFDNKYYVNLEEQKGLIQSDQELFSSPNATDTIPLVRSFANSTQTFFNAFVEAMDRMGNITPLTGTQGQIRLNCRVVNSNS
T1 sequence (P01870 whole entry partner): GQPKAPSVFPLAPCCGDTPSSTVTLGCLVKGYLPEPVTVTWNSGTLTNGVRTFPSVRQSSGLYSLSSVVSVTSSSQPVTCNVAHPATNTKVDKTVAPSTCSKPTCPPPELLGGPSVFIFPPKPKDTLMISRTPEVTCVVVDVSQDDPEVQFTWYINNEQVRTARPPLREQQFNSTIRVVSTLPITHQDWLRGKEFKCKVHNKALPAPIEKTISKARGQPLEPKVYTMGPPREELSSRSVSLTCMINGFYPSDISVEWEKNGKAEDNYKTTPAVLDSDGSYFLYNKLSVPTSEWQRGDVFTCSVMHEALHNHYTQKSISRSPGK
T1 sequence (P01840 whole entry partner): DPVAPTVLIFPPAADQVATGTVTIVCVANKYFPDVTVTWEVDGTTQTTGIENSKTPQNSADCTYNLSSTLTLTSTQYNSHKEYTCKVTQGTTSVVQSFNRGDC

As for “LEQGENVFLQATLLC [CBP2, C1q B chain residues 189-200 plus Leu Leu Cys at the carboxyl terminus]”, the IC50 in experiment [1] is about 10 µM; in experiment [2] (Ig-HRP 1:5000 in PBS, preincubated 1 hour 37° C., read-out: concentration at 50% inhibition of Protein A binding of Ig-HRP), about 1 µM. The “inhibition of Protein A binding of Ig-HRP (maximum)” value in experiment [2] is reported as about 100%. For the same sequence, the “effect of DTT on the inhibitory activity of CBP2” value in experiment [2] (4 mg/ml DTT, 2 hours 37° C., solid phase Protein A) is listed as “no effect”. The “Graft Survival” value in experiment [3] was 4 days and 5 days. Further, the “C1q binding to PAECs (immunohistochemical staining)” value in experiment [4] is reported as “only trace binding of C1q”. The “effect on the HRP enzyme” value with HRP enzyme was “did not inhibit the HRP enzyme”.
